The source of these data is patent US7041639B2, “Depsipeptide and congeners thereof for use as immunosuppressants” (XCYTE Therapies, Inc., priority 1999, dated 2006).

Assay [1] has as its system IL-2 production by activated CD4 cells. Description: IL-2 ELISA of supernatants. Type of assay: cell-based, human. The settings on record: ELISA after 24 h of 3×28 bead stimulation of purified CD4 cells; FIG. 6. As to the method: Cells are prepared as described above. Supernatants from cells stimulated 24 h are subjected to an IL-2 or TNF-α enzyme linked immunosorbant assay (ELISA) according to the manufacturer's instructions (Biosource International, Sunnyvale, Calif.).
To study the mechanism behind FR901228 inhibition of CD4 cell proliferation, IL-2 and TNF-α production by activated CD4 cells was analyzed. […] The reason for this difference is currently unknown.
(ELISA stands for enzyme-linked immunosorbent assay.)

Assay [2] has as its system activated T-cells (peripheral blood lymphocytes). Description: Proliferation inhibition assay, CFDA-SE staining. Type of assay: cell-based, human. The settings on record: added at time 0 or 24, 72, 120 hours post-stimulation with 3×28 beads; day 6; FIG. 7. As to the method: Peripheral blood lymphocytes are prepared as described above, stimulated with 3×28 beads and stained with carboxyfluorescein diacetate succinimidyl ester (CFDA-SE) at day 6 post stimulation. Cell stimulation was carried out as indicated above and the cells were washed twice with PBS and resuspended in media and incubated with CFDA-SE (Molecular Probes, OR). After about 10 minutes of staining, the cells are washed with media and FPS and dye incorporation was measured. FR901228 was added at various time points post-stimulation, at time 0 or at 24, 72, and 120 hours post-stimulation. FIG. 7 depicts flow data generated by CFDA-SE staining. The y-axis sets forth mean fluoresence intensity, which relates to the inverse of cell growth.

For the next assay, the system named is CD154 on CD4 cells. Nature of the assay: CD154 expression on CD4 cells with or without IL-2. Type of assay: cell-based, human. The settings on record: 20 ng/ml added day three; 3×28 beads and/or 20 units/ml IL-2; read day 4; FIG. 9. As to the method: The effect of FR901228 on the induction of the CD154 activation marker on CD4 cells is studied. In this regard, cells are labeled with FITC-coupled anti-human CD4 Ab (Immunotech, Fullerton, Calif.), PE-coupled anti-human CD154 Ab (Becton Dickinson, Fullerton, Calif.), or FITC- or PE-coupled IgG1 isotype control Ab. Cells, 2×10^5 are labeled for 20 minutes at 4° C. with 2 μl of each antibody in a final volume of 30 μl, washed and resuspended in 1% parformaldehyde (Sigma, St. Louis, Mo.). The cells are stimulated for four days in the presence of 3×28 beads and/or 20 units/ml IL-2 or an anti-IL-2 antibody at day three, FR901228 is added to the culture at a concentration of 20 ng/ml. On day 4, mean fluorescence intensity is measured by flow cytometry.

A further assay concerns CD154 transcript. Description: RT-PCR of the CD154 transcript. Type of assay: cell-based. The settings on record: 18 hours of stimulation with 3×28 beads; data not shown. The method, then:
In separate experiments, RT-PCR of the CD154 transcript was carried out after 18 hours of stimulation with 3×28 beads and various amounts of FR901228. […] Experiments were also conducted using CD4 cells incubated with anti-sense constructs of c-myc. After stimulation by 3×28 beads for twenty-four hours, the anti-sense c-myc construct reduced CD154 expression as measured by flow cytometry by about 50% as compared to controls including:no construct, sense or transfection with a scrambled c-myc construct (data not shown). Accordingly, FR901228 and like compounds may target the activity of c-myc and its induction of CD154 as one mechanism of immune suppression.

The subject of the next assay is bulk phosphorylation. Nature of the assay: Phosphotyrosine Western blots. Type of assay: cell-based. The source says:
FR901228 has a number of features that aid its ability to act as a potent immunosuppressant. […] Thus, these observations indicate that compounds of structure (I) affect the T-cell activation pathway at multiple points, thus allowing activation to proceed into early stages, such as phosphorylation, but preventing subsequent events of activation and proliferation.

The test system of assay [3] is Haras transfected mouse fibroblasts (NIH-3T3). The settings on record: background statement; cited from earlier work.

As to `C/C=C1\NC(=O)[C@H]2CSSCC/C=C/[C@H](CC(=O)N[C@H](C(C)C)C(=O)N2)OC(=O)[C@H](C(C)C)NC1=O` [FR901228], the “lowest concentration that markedly inhibits IL-2 production” value in assay [1] came out at 10 ng/mL. Also, the “cell growth of activated T-cells (CFDA-SE mean fluorescence intensity)” value in assay [2] is “inhibited”. The “CD154 expression in presence or absence of IL-2” value with CD154 on CD4 cells is “suppression of CD154 expression”. The “levels of CD154 expression by RT-PCR” value in the assay with CD154 transcript is on record as “reduced levels of CD154 expression with increasing amounts”. The bulk phosphorylation result with bulk phosphorylation is “does not affect”. In addition, the “transformation of Haras transfected NIH-3T3” value in assay [3] is given as “inhibit transformation”.
